Measurements published in patent US9688709B2, “Phosphaplatins and their use for treatment of cancers” (OHIO UNIVERSITY, priority 2010, dated 2017).
Read-outs that look alike come from different tables or passages of the source.

What was measured:
[1] = tested on: human ovarian cancer OVCAR-10 xenograft; experiment: In vivo efficacy, OVCAR-10 mouse xenograft; set-up: species or system mice; settings: 40 mg/kg body weight, during the treatment time
Procedure: Stable human clonal ovarian cancer cell lines OVCAR-10 and head and neck cancer UMSCC10b were grown separately in cell culture until 80-90% confluency was reached. Trypsin (GIBCO/BRL, Grand Island, N.Y.) was used to detach adherent cells. Trypsinized cells were thoroughly washed with PBS (Phosphate Buffered Saline) to remove trypsin. Efficacy of phosphaplatin compounds were evaluated by subcutaneously implanting human OVCAR-10 and UMSCC-10b xenograft in SCID Hairless OutBred, SHO-Prkdc^scidHr^hr, (Charles River Labs, Wilmington, Mass.) mice, NIH (NIH III: NIHBNX-F; NIHS-Lystbg Foxnlnu Btkxid, 4-week old female, Taconic (Rensselaer, N.Y.) mice.
(§1) Female SCID/NIH mice 4-5 weeks old were acclimated for one week before initiation of efficacy trials. Cancer cells were re-suspended in PBS and all mice except for negative control mice were injected subcutaneously with from 1×10^6 cells/0.10 mL to 5×10^6 cells/0.10 mL in PBS. The tumor size was evaluated as a function of time. The mice were examined daily for tumor growth. Tumors were measured using digital calipers. The tumor volume was calculated by the formula (W^2×L)/2, where W is the tumor measurement at the widest point, and L is the tumor dimension at the longest point, where the volume of the tumor in mm^3 is equivalent to the weight in mg.
After approximately 2 weeks of the subcutaneous injection of cancer cells, the tumors that had reached a distinguishable tumor sizes (approximately 100 mm^3 to 200 mm^3), phosphaplatin compounds of desired doses were administered intra-peritoneally. These administrations were done one time on day 1, once on day 3, and once on day 5.
Each group of xenograft mice was treated with phosphaplatin compounds, and a matched set was treated with vehicle/placebo (PBS solution) and mock injection (as a control for stress response). […] The xenograft SCID mice/NIH were monitored every day for any adverse events in their health by measuring weight loss/gain and food consumption. Measurements were stopped and the study was ended when the tumor size exceeded 3000 mm^3. […]

[2] = Stability in aqueous solution at neutral pH (31P-NMR); format: physicochemical
Description: Typically, no decomposition is observed within seven days after dissolving the phosphaplatin compounds in water and observing by ^31P-NMR spectroscopy.

[3] = tested on: human ovarian cancer A2780 xenograft; experiment: In vivo efficacy, A2780 mouse xenograft; set-up: species or system mice
Procedure: Stable clonal ovarian cancer cell lines A2780 were grown in cell culture until 80-90% confluency was reached. Trypsin (GIBCO/BRL, Grand Island, N.Y.) was used to detach adherent cells. Trypsinized cells were thoroughly washed with PBS (Phosphate Buffered Saline) to remove trypsin. Efficacy of phosphaplatin compounds were evaluated using human ovarian cancer, A2780 by subcutaneous xenograft in SCID Hairless OutBred, SHO-Prkdc^scidHr^hr, (Charles River Labs, Wilmington, Mass.) mice. Female SCID mice 4 to 5 weeks old were acclimated for one week before initiation of efficacy trials.
as §1, with “Cancer” for “Female SCID/NIH mice 4-5 weeks old were acclimated for one week before initiation of efficacy trials. Cancer”, “PBS,” for “PBS”, “PBS and were” for “PBS. The tumor size was”, “evaluated for tumors” for “evaluated”, “time using sterile 26 gauge needles and syringes.” for “time.”, “mg. […]” for “mg.”
The xenograft SCID mice were monitored every day for any adverse events in their health by measuring weight loss/gain and food consumption. […]

| Compound | tumor response [1] | stability at neutral pH in aqueous solution [2] | tumor response ([3]; 10 mg/kg qodx3, first ten days of treatment) | stability at neutral pH in aqueous solution ([2]; dissolved in water, observed by 31P-NMR, seven days) | tumor response ([3]; 40 mg/kg qodx3, first ten days of treatment) |
| --- | --- | --- | --- | --- | --- |
| O=P1(O)OP(=O)(O)[O][Pt]2([OH])([OH])([NH][C@@H]3CCCC[C@H]3[NH]2)[O]1 [(1R,2R)-pyrodach-4, ((1R,2R)-1,2-cyclohexanediamine)-trans-dihydroxo(dihydrogenpyrophosphato)platinum (IV)] | tumor regression | remarkable stability | tumor regression |  |  |
| O=P1(O)OP(=O)(O)[O][Pt]2([NH][C@@H]3CCCC[C@H]3[NH]2)[O]1 (stereo partly drawn) [(1R,2R)-pyrodach-2, ((1R,2R)-1,2-cyclohexanediamine)(dihydrogenpyrophosphato)platinum (II)] | tumor regression |  |  | remarkable stability | tumor regression |
